For series [1], the target named is T1, duodenal cytochrome b (Dcytb) (Homo sapiens, UniProt Q53TN4).
T1 construct: gene CYBRD1; full-length Dcytb (residues 1–286); atomic model residues 6–230
T1 sequence (Q53TN4 1-286): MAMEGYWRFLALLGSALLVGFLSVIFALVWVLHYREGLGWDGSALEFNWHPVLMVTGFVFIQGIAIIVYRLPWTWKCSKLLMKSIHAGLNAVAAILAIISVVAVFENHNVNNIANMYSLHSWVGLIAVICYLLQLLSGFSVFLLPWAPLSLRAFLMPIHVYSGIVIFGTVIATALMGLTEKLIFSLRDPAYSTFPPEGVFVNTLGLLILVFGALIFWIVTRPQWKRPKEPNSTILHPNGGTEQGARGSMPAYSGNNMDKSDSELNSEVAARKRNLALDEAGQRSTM
The experiment in a line: X-ray crystal structure ([…] Å, soaked with […] sodium ascorbate and ZnSO4); stopped-flow heme reduction. It counts as binding.

Series [2] concerns the molecule itself. Kind of series: crystal structure; lipidic cubic phase (monoolein) crystals, space group C2; substrate-free form at 2.6 Å and Zn2+/ascorbate-soaked form at 2.8 Å; the dimer is formed by crystallographic twofold symmetry.

Turning to `O=C1O[C@H]([C@@H](O)CO)C(O)=C1O` [Asc, ascorbate], the “X-ray crystal structure (2.8 Å, soaked with 1 M sodium ascorbate and ZnSO4); sto” value in series [1] is “The electron density from one ascorbate molecule was observed on the cytoplasmic surface of Dcytb in proximity to the heme”.

B1: human duodenal cytochrome b (Dcytb) (enzyme, UniProt Q53TN4 1-286, looked up)
chain: MAMEGYWRFLALLGSALLVGFLSVIFALVWVLHYREGLGWDGSALEFNWHPVLMVTGFVFIQGIAIIVYRLPWTWKCSKLLMKSIHAGLNAVAAILAIISVVAVFENHNVNNIANMYSLHSWVGLIAVICYLLQLLSGFSVFLLPWAPLSLRAFLMPIHVYSGIVIFGTVIATALMGLTEKLIFSLRDPAYSTFPPEGVFVNTLGLLILVFGALIFWIVTRPQWKRPKEPNSTILHPNGGTEQGARGSMPAYSGNNMDKSDSELNSEVAARKRNLALDEAGQRSTM
notes: human duodenal cytochrome b (Dcytb), member of the cytochrome b561 family, full-length, residues 1-286; codon-optimized gene; the atomic model includes only residues 6-230; A thrombin cleavage site stood between the protein and the C-terminal hexa-His tag (pET-21b(+)); after cleavage some residues of the site may remain at the C-terminus; Integral membrane protein, solubilised in DDM and …
For orientation: stoichiometry N means the number of molecules, sites or subunits per partner or assembly. On to B1, for which the “stoichiometry N” value in series [2] is 2.

Source of the values: PMC6123691, “Structural basis for promotion of duodenal iron absorption by enteric ferric reductase with ascorbate” (Communications Biology, 2018).
